Data reported in US10519138B2, “Modulators of SOCE, compositions, and uses thereof” (Università degli Studi del Piemonte Orientale “Amedeo …, priority 2016, dated 2019).
Where “and” joins values, the source holds several entries; their conditions need not be identical. Equal entries are not always repeated.

Legend:
[1] = test system: Store Operated Calcium Entry (SOCE) in BV-2 cells; experiment: Fluo-4 fluorimetric assay of tBHQ-induced store operated calcium entry in BV-2 cells; assay type: cell-based, mouse; conditions: for inhibition at 10 µM: Mus musculus, SOCE inhibition based on tBHQ-induced calcium influx; for % Activation (10 μM): potentiation of calcium entry
Protocol: (A) BV-2 cells were plated in poly-d-lysine coated 24-well plate and incubated overnight. After 24 hours, cells were loaded with 2 μM Fluo-4 and placed in an extracellular solution containing 0 mM Ca^2+. Stores were depleted with 50 μM tBHQ and calcium influx was stimulated by the addition of 2 mM Ca^2+ alone (Ctrl), or in conbination with: compound with no activity (NM-3A), and compounds that positively (4-(1-(4-(3,5-bis(trifluoromethyl)-1H-pyrazol-1-yl)phenyl)-1H-1,2,3-triazol-4-yl)benzoic acid) and negatively (3-(1-(4-(4-(ethoxycarbonyl)-5-(trifluoromethyl)-1H-pyrazol-1-yl)phenyl)-1H-1,2,3-triazol-4-yl)benzoic acid) regulate SOCE. Calcium responses are expressed as changes in fluorescence intensity before and after the addition of selected modulators. (B) BV-2 cells were assayed for a calcium response to different concentrations of 3-(1-(4-(4-(ethoxycarbonyl)-5-(trifluoromethyl)-1H-pyrazol-1-yl)phenyl)-1H-1,2,3-triazol-4-yl)benzoic acid and 4-(1-(4-(3,5-bis(trifluoromethyl)-1H-pyrazol-1-yl)phenyl)-1H-1,2,3-triazol-4-yl)benzoic acid (0.1-0.3-1-3-10-30-100 μM) using Fluo-4 fluorimetric assay. Concentration-response curves represent the AUC % of both compounds as compared to positive control.
Immortalized primary mouse microglial BV-2 cells were obtained from ATCC (ATCC® CRL-2540™, Rockville, Md., USA) and were cultured in Dulbecco's Modified Eagle's Medium (DMEM; Sigma-Aldrich, Italy), supplemented with 10% heat-inactivated FBS (Gibco, Italy), 1-glutamine 50 mg/mL (Sigma-Aldrich, Italy), penicillin 10 U/mL and streptomycin […] (Sigma-Aldrich, Italy) at 37° C., under a 5% CO2 humidified atmosphere. For experiments, the cells were plated 2×10^4 per ml in 24 well plates) or onto glass coverslips at concentrations of 4×10^4 per mL (24 mm diame-ter coverslips in 6 well plates).
BV-2 cells were loaded with 5 μM Fluo-4 AM in presence of 0.02% of Pluronic-127 (both from Life Technologies, Italy) and 10 μM sulfinpyrazone in Krebs-Ringer buffer (KRB, 135 mM NaCl, 5 mM KCl, 0.4 mM KH2PO4, 1 mM MgSO4, 5.5 mM glucose, 20 mM HEPES, pH 7.4) containing 2 mM CaCl2 (30 min, room temperature). Subsequently, cells were washed and incubated with KRB for other 30 min to allow de-esterification of Fluo-4 AM. Experiments were carried out prior to and during exposure of the cells to the Ca^2+-free solution. In the absence of Ca^2+, the intracellular Ca^2+ stores were depleted by 2,5-t-butylhydroquinone (tBHQ, 50 μM; Sigma-Aldrich, Italy), a SERCA poison, and then calcium 2 mM was re-added to the extracellular solution. Fluorescence is then monitored sequentially for a second in each well for 600 seconds with excitation at 494 nm and an emission wavelength at 516 nm on the V3 Victor plate-reader (Perkin Elmer), generating time-curves for each well. Data were analysed using Microsoft Excel and GraphPad Prism.
The percentage of SOCE inhibition for each compound was determined based on value of tBHQ-induced calcium influx into BV-2 cells (Table 2).

[2] = test system: Store Operated Calcium Entry (SOCE) in Jurkat cells; experiment: Fura-2 single-cell Ca2+ measurement of tBHQ-induced SOCE in Jurkat cells; assay type: cell-based, human; conditions: for inhibition at 10 µM: Homo sapiens, SOCE modulation based on tBHQ-induced calcium influx
Protocol: Immortalized line of human T lymphocyte Jurkat cells were achieved from ATCC (ATCC® TIB-152™, Rockville, Md., USA) and were cultured in Roswell Park Memorial Institute Medium (RPMI 1640; Sigma-Aldrich, Italy), supplemented with 10% heat-inactivated FBS (Gibco, Italy), 1-glutamine 50 mg/mL (Sigma-Aldrich, Italy), penicillin 10 U/mL and streptomycin […] (Sigma-Aldrich, Italy) at 37° C., under a 5% CO2 humidified atmosphere. For experiments, the cells were plated onto glass coverslips at concentrations of 6×10^4 per mL (24 mm diameter coverslips in 6 well plates).
Compounds were also tested on Jurkat cells in single-cell analysis using Fura-2 AM on cover-slips. Jurkat cells were loaded with 5 μM Fura-2 AM in presence of 0.02% of Pluronic-127 (both from Life Technologies, Italy) and 1 μM sulfinpyrazone in Krebs-Ringer buffer (KRB, 135 mM NaCl, 5 mM KCl, 0.4 mM KH2PO4, 1 mM MgSO4, 5.5 mM glucose, 20 mM HEPES, pH 7.4) containing 2 mM CaCl2 (30 min, room temperature). Afterwards, cells were washed and incubated with KRB for other 30 min to allow de-esterification of Fura-2AM. To measure store operated calcium entry, changes in cytosolic Ca^2+ were monitored upon depletion of the intracellular Ca^2+ stores. Experiments were carried out prior to and during exposure of the cells to the Ca^2+-free solution. In the absence of Ca^2+, the intracellular Ca^2+ stores were depleted by inhibition of the vesicular Ca^2+ pump by 2,5-t-butylhydroquinone (tBHQ, 50 μM; Sigma-Aldrich, Italy). Re-addition of 2 mM Ca^2+ allowed assessing the SOCE. During the experiments the cover-slips were mounted into acquisition chamber and placed on the stage of a Leica DMI6000 epi-fluorescent microscope equipped with S Fluor ×40/1.3 objective. Fura-2 was excited by alternate 340 and 380 nm using a Polychrome IV mono-chromator (Till Photon-ics, Germany) and the probe emission light was filtered through 520/20 band-pass filter and collected by a cooled CCD camera (Hamamatsu, Japan). The fluorescence signals were acquired and processed using MetaFluor software (Molecular Device, Sun-Nyvale, C A, USA). To quantify the differences in the amplitudes of Ca^2+ transients the ratio values were normalized using the formula ΔF/F0 (referred to as normalized Fura-2 ratio, “Norm. Fura ratio”). The percentage of SOCE modulation for each of 15 compounds was determined based on value of tBHQ-induced calcium influx into Jurkat cells. Data were analysed using Microsoft Excel and GraphPad Prism.

ICRAC = ICRAC (Homo sapiens, UniProt Q96D31); conditions: read-out: IC50 (inhibition of ICRAC); cited from earlier work
Sequence of ICRAC (Q96D31 whole entry): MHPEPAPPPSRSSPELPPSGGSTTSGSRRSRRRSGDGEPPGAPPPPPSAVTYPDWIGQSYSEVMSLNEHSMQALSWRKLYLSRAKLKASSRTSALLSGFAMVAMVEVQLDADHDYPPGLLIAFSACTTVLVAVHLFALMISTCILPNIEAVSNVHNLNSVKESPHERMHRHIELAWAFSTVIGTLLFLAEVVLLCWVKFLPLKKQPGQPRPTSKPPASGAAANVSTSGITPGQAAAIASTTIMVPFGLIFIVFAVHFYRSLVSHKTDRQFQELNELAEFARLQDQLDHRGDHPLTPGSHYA

SMILES	inhibition at 10 µM [1]	inhibition at 10 µM [2]	further results
CCOC(=O)c1cnn(-c2ccc(-n3cc(-c4ccc(O)c(OC)c4)nn3)cc2)c1C(F)(F)F [ethyl 1-(4-(4-(4-hydroxy-3-methoxyphenyl)-1H-1,2,3-triazol-1-yl)phenyl)-5-(trifluoromethyl)-1H-pyrazole-4-carboxylate]	35%	78.4%	
CCOC(=O)c1cnn(-c2ccc(-c3cn(-c4ccncc4F)nn3)cc2)c1C(F)(F)F [ethyl 1-(4-(1-(3-fluoropyridin-4-yl)-1H-1,2,3-triazol-4-yl)phenyl)-5-(trifluoromethyl)-1H-pyrazole-4-carboxylate]	37.7%	32.9%	
O=C(O)c1cccc(-c2cn(-c3ccc(-n4ncc(C(=O)OCc5ccccc5)c4C(F)(F)F)cc3)nn2)c1 [3-(1-(4-(4-((benzyloxy)carbonyl)-5-(trifluoromethyl)-1H-pyrazol-1-yl)phenyl)-1H-1,2,3-triazol-4-yl)benzoic acid]	87%	33.5%	
CCOC(=O)c1cnn(-c2ccc(-n3cc(-c4ccc(C(=O)O)cc4)nn3)cc2)c1C(F)(F)F [4-(1-(4-(4-(ethoxycarbonyl)-5-(trifluoromethyl)-1H-pyrazol-1-yl)phenyl)-1H-1,2,3-triazol-4-yl)benzoic acid]	40.1%	32.3%	
O=C(O)c1cnn(-c2ccc(-c3cn(-c4ccc(Cl)cc4)nn3)cc2)c1C(F)(F)F [1-(4-(1-(4-chlorophenyl)-1H-1,2,3-triazol-4-yl)phenyl)-5-(trifluoromethyl)-1H-pyrazole-4-carboxylic acid]			% Activation (10 μM) [2]: 100.13%
O=C(O)c1cccc(-c2cn(-c3ccc(-n4ncc(C(=O)OCCN5CCOCC5)c4C(F)(F)F)cc3)nn2)c1 [3-(1-(4-(4-((2-morpholinoethoxy)carbonyl)-5-(trifluoromethyl)-1H-pyrazol-1-yl)phenyl)-1H-1,2,3-triazol-4-yl)benzoic acid]	95.7%	25.1%	
O=C(O)c1cccc(-n2cc(-c3ccc(-n4nc(C(F)(F)F)cc4C(F)(F)F)cc3)nn2)c1 [3-(4-(4-(3,5-bis(trifluoromethyl)-1H-pyrazol-1-yl)phenyl)-1H-1,2,3-triazol-1-yl)benzoic acid]	30.5%	39.7%	
CCOC(=O)c1cnn(-c2ccc(-c3cn(-c4ccc(Cl)cc4)nn3)cc2)c1C(F)(F)F [ethyl 1-(4-(1-(4-chlorophenyl)-1H-1,2,3-triazol-4-yl)phenyl)-5-(trifluoromethyl)-1H-pyrazole-4-carboxylate]			% Activation (10 μM) [1]: 47.07%; % Activation (10 μM) [2]: 122.94% and 126.78% and 97.32%
CCOC(=O)c1cnn(-c2ccc(-c3cn(-c4cccc(C(=O)O)c4)nn3)cc2)c1C(F)(F)F [3-(4-(4-(4-(ethoxycarbonyl)-5-(trifluoromethyl)-1H-pyrazol-1-yl)phenyl)-1H-1,2,3-triazol-1-yl)benzoic acid]	43.3%	63.6%	
O=C(O)c1cccc(-c2cn(-c3ccc(-n4ncc(C(=O)OCc5ccncc5)c4C(F)(F)F)cc3)nn2)c1 [3-(1-(4-(4-((pyridin-4-ylmethoxy)carbonyl)-5-(trifluoromethyl)-1H-pyrazol-1-yl)phenyl)-1H-1,2,3-triazol-4-yl)benzoic acid]	54.6%	57%	
O=C(O)c1cccc(-c2cn(-c3ccc(-n4nc(C(F)(F)F)cc4C(F)(F)F)cc3)nn2)c1 [3-(1-(4-(3,5-bis(trifluoromethyl)-1H-pyrazol-1-yl)phenyl)-1H-1,2,3-triazol-4-yl)benzoic acid]	38.7%	38.3%	
CCOC(=O)c1cnn(-c2ccc(-c3cn(CCCC(=O)O)nn3)cc2)c1C(F)(F)F [4-(4-(4-(4-(ethoxycarbonyl)-5-(trifluoromethyl)-1H-pyrazol-1-yl)phenyl)-1H-1,2,3-triazol-1-yl)butanoic acid]	30.1%	19.1%	
COc1ccc(OC)c(-c2ccc(NC(=O)c3ccncc3F)cc2)c1 [Synta66]			IC50 (ICRAC): 300 nM
COC(=O)c1cnn(-c2ccc(-n3cc(-c4cccc(C(=O)O)c4)nn3)cc2)c1C(F)(F)F [3-(1-(4-(4-(methoxycarbonyl)-5-(trifluoromethyl)-1H-pyrazol-1-yl)phenyl)-1H-1,2,3-triazol-4-yl)benzoic acid]	12.4%	21.8%	
CC(C)OC(=O)c1cnn(-c2ccc(-n3cc(-c4cccc(C(=O)O)c4)nn3)cc2)c1C(F)(F)F [3-(1-(4-(4-(isopropoxycarbonyl)-5-(trifluoromethyl)-1H-pyrazol-1-yl)phenyl)-1H-1,2,3-triazol-4-yl)benzoic acid]	74.6%	93.9%	
O=C(O)c1ccc(-c2cn(-c3ccc(-n4nc(C(F)(F)F)cc4C(F)(F)F)cc3)nn2)cc1 [4-(1-(4-(3,5-bis(trifluoromethyl)-1H-pyrazol-1-yl)phenyl)-1H-1,2,3-triazol-4-yl)benzoic acid]			% Activation (10 μM) [1]: 125.15%; Regulation of SOCE (calcium response, representative traces FIG. 2A) ([1]; Fluo-4, 50 μM tBHQ, 2 mM Ca2+ re-addition): positively; % Activation (10 μM) [2]: 136.42%
